Reference: US10717749B2, “Macrocyclic sulfondiimine compounds” (BAYER PHARMA AKTIENGESELLSCHAFT, priority 2015, dated 2020)
In brackets after ≈: the same amount, converted by molar mass.

Assays:
CDK2/CycE = target: T1, CDK2/CycE (Homo sapiens, UniProt P24941); assay: CDK2/CycE high ATP kinase assay (Method 2b, TR-FRET, 2 mM ATP); format: biochemical
T1 construct: GST; purchased ProQinase GmbH (Freiburg, Germany); host or cells: insect cells (Sf9)
Experimental: 2b. CDK2/CycE High ATP Kinase Assay:
CDK2/CycE-inhibitory activity of compounds of the present invention at 2 mM adenosine-tri-phosphate (ATP) was quantified employing the CDK2/CycE TR-FRET (TR-FRET=Time Resolved Fluorescence Resonance Energy Transfer) assay as described in the following paragraphs.
Recombinant fusion proteins of GST and human CDK2 and of GST and human CycE, expressed in insect cells (Sf9) and purified by Glutathion-Sepharose affinity chromatography, were purchase from ProQinase GmbH (Freiburg, Germany). As substrate for the kinase reaction biotinylated peptide biotin-Ttds-YISPLKSPYKISEG (C-terminus in amid form) was used which can be purchased e.g. from the company JERINI peptide technologies (Berlin, Germany).
For the assay 50 nl of a 100 fold concentrated solution of the test compound in DMSO was pipetted into a black low volume 384 well microtiter plate (Greiner Bio-One, Frickenhausen, Germany), 2 μl of a solution of CDK2/CycE in aqueous assay buffer [50 mM Tris/HCl pH 8.0, 10 mM MgCl2, 1.0 mM dithiothreitol, 0.1 mM sodium ortho-vanadate, 0.01% (v/v) Nonidet-P40 (Sigma)] were added and the mixture was incubated for 15 min at 22° C. to allow pre-binding of the test compounds to the enzyme before the start of the kinase reaction. […] The concentration of CDK2/CycE was adjusted depending of the activity of the enzyme lot and was chosen appropriate to have the assay in the linear range, typical concentrations were in the range of 15 ng/ml. The reaction was stopped by the addition of 5 μl of a solution of TR-FRET detection reagents (0.2 μM streptavidine-XL665 [Cisbio Bioassays, Codolet, France] and 1 nM anti-RB(pSer807/pSer811)-antibody from BD Pharmingen [#558389] and 1.2 nM LANCE EU-W1024 labeled anti-mouse IgG antibody [Perkin-Elmer, product no. AD0077, as an alternative a Terbium-cryptate-labeled anti-mouse IgG antibody from Cisbio Bioassays can be used]) in an aqueous EDTA-solution (100 mM EDTA, 0.2% (w/v) bovine serum albumin in 100 mM HEPES pH 7.5).
The resulting mixture was incubated 1 h at 22° C. to allow the formation of complex between the phosphorylated biotinylated peptide and the detection reagents. Subsequently the amount of phosphorylated substrate was evaluated by measurement of the resonance energy transfer from the Eu-chelate to the streptavidine-XL. Therefore, the fluorescence emissions at 620 nm and 665 nm after excitation at 350 nm wer measured in a TR-FRET reader, e.g. a Rubystar (BMG Labtechnologies, Offenburg, Germany) or a Viewlux (Perkin-Elmer). The ratio of the emissions at 665 nm and at […] was taken as the measure for the amount of phosphorylated substrate. The data were normalised (enzyme reaction without inhibitor=0% inhibition, all other assay components but no enzyme=100% inhibition).

Caco-2 permeation assay = format: in vitro ADME; conditions: human, Caco-2, pH 7.2, test compound 2 μM; for efflux ratio at 2 h, 2 μM: read-out: Efflux ratio (Papp B-A/Papp A-B); for Papp A→B at 2 h, 2 μM: read-out: Papp A-B (Mari); for Papp B→A at 2 h, 2 μM: read-out: Papp B-A (Mari)
Experimental: 5. Caco-2 Permeation Assay:
Caco-2 cells (purchased from DSMZ Braunschweig, Germany) were seeded at a density of 4.5×10^4 cells per well on 24 well insert plates, 0.4 µm pore size, and grown for 15 days in DMEM medium supplemented with 10% fetal bovine serum, 1% GlutaMAX (100×, GIBCO), 100 U/mL penicillin, 100 μg/mL streptomycin (GIBCO) and 1% non essential amino acids (100×). Cells were maintained at 37° C. in a humified 5% CO2 atmosphere. Medium was changed every 2-3 day. Before running the permeation assay, the culture medium was replaced by a FCS-free hepes-carbonate transport buffer (pH 7.2). For assessment of monolayer integrity the transepithelial electrical resistance (TEER) was measured. Test compounds were predissolved in DMSO and added either to the apical or basolateral compartment in final concentration of 2 μM in transport buffer. Before and after 2 h incubation at 37° C. samples were taken from both compartments. Analysis of compound content was done after precipitation with methanol by LC/MS/MS analysis. Permeability (Papp) was calculated in the apical to basolateral (A→B) and basolateral to apical (B→A) directions. The apparent permeability was calculated using following equation: Papp=(Vr/Po)(1/S)(P2/t) Where Vr is the volume of medium in the receiver chamber, Po is the measured peak area or height of the test drug in the donor chamber at t=o, S the surface area of the monolayer, P2 is the measured peak area of the test drug in the acceptor chamber after 2 h of incubation, and t is the incubation time. The efflux ratio basolateral (B) to apical (A) was calculated by dividing the Papp B-A by the Papp A-B. In addition the compound recovery was calculated. 6. Investigation of In Vitro Metabolic Stability in Rat Hepatocytes

[1] = High throughput determination of aqueous drug solubility from DMSO solution (Method 4a); format: physicochemical; conditions: phosphate buffer, kinetic from dmso stock, pH 6.5, Method 4a
Text: 4. Equilibrium Shake Flask Solubility Assay:
4a) High Throughput Determination of Aqueous Drug Solubility (100 Mmolar in DMSO)
The high throughput screening method to determine aqueous drug solubility is based on: Thomas Onofrey and Greg Kazan, Performance and correlation of a 96-well high throughput screening method to determine aqueous drug solubility, http://wwv.millipore.com/publications.nsf/a73664f9f981 af8c852569b9005b4eee/e565516fb76e7435852 56da30052db77/$FILE/AN1731EN00.pdf
The assay was run in a 96-well plate format. Each well was filled with an individual compound.
All pipetting steps were performed using a robot platform.
100 μl of a 10 mmolar solution of drug in DMSO were concentrated by vacuum centrifugation and resolved in 10 μl DMSO. 990 μl phosphate buffer pH 6.5 were added. The content of DMSO amounts to 1%. The multititer plate was put on a shaker and mixed for 24 hrs at room temperature. 150 μl of the suspension were transferred to a filtration plate. After filtration using a vacuum manifold the filtrate was diluted 1:400 and 1:8000. A second microtiter plate with 20 μl of a 10 mM solution of drug in DMSO served for calibration. Two concentrations (0.005 μM and 0.0025 μM) were prepared by dilution in DMSO/water 1:1 and used for calibration. Filtrate and calibration plates were quantified by HPLC-MS/MS.
The areas of sample- and calibration injections were determined by using mass spectromety software (AB SCIEX: Discovery Quant 2.1.3. and Analyst 1.6.1). The calculation of the solubility value (in mg/l) was executed by an inhouse developed Excel macro.

Structure (SMILES) | IC50 (CDK2/CycE) [nM] | efflux ratio at 2 h, 2 μM (Caco-2 permeation assay) | Papp A→B at 2 h, 2 μM (Caco-2 permeation assay) [×10⁻⁶ cm/s] | Papp B→A at 2 h, 2 μM (Caco-2 permeation assay) [×10⁻⁶ cm/s] | solubility thermodynamic at 24 h [1] [µg/mL]
CS(=N)(Cc1cc2nc(c1)OCCCOc1cc(F)ccc1-c1cc(ncc1F)N2)=NCCCO (racemic) [Example 2, (rac)-3-(2-{[15,19-difluoro-3,4-dihydro-2H,11H-10,6-(azeno)-12,16-(metheno)-1,5,11,13-benzodioxadiazacyclooctadecin-8-yl]methyl}-2-methyl-2λ^6-diazathia-1,2-dien-1-yl)propan-1-ol] | 246 | 23.2 | 0.99 | 22.9 | 
CS(=N)(Cc1cc2nc(c1)OCCCOc1cc(F)ccc1-c1cc(ncc1F)N2)=NC#N (racemic) [Example 3, (rac)-[{[15,19-difluoro-3,4-dihydro-2H,11H-10,6-(azeno)-12,16-(metheno)-1,5,11,13-benzodioxadiazacyclooctadecin-8-yl]methyl}(imino)methyl-λ^6-sulfanylidene]cyanamide] | 62.4 |  |  |  | 
CN=S(C)(=N)Cc1cc2nc(c1)OCCCOc1cc(F)ccc1-c1cc(ncc1F)N2 (racemic) [Example 4, (rac)-8-[(N,S-dimethylsulfonodiimidoyl)methyl]-15,19-difluoro-3,4-dihydro-2H,11H-10,6-(azeno)-12,16-(metheno)-1,5,11,13-benzodioxadiazacyclooctadecine] | 620 |  |  |  | 
CS(=N)(=N)Cc1cc2nc(c1C#N)OCCCOc1cc(F)ccc1-c1cc(ncc1F)N2 [Example 8, 15,19-difluoro-8-[(S-methylsulfonodiimidoyl)methyl]-3,4-dihydro-2H,11H-10,6-(azeno)-12,16-(metheno)-1,5,11,13-benzodioxadiazacyclooctadecine-7-carbonitrile] | 378 |  |  |  | 

Now from value to compound:

IC50 (CDK2/CycE) [nM] | efflux ratio at 2 h, 2 μM (Caco-2 permeation assay) | Papp A→B at 2 h, 2 μM (Caco-2 permeation assay) [×10⁻⁶ cm/s] | Papp B→A at 2 h, 2 μM (Caco-2 permeation assay) [×10⁻⁶ cm/s] | solubility thermodynamic at 24 h [1] [µg/mL] | Structure (SMILES)
997 |  |  |  | 70 (≈ 140 µM) | CS(=N)(Cc1cc2cc(c1)OCCCCOc1cc(F)ccc1-c1nc(ncc1F)N2)=NC1CC1 (racemic) [Example 9, (rac)-9-[(N-cyclopropyl-S-methylsulfonodiimidoyl)methyl]-16,20-difluoro-2,3,4,5-tetrahydro-12H-13,17-(azeno)-11,7-(metheno)-1,6,12,14-benzodioxadiazacyclononadecine]
1650 |  |  |  |  | CN=S(C)(=N)Cc1cc2cc(c1)OCCCCOc1cc(F)ccc1-c1nc(ncc1F)N2 (racemic) [Example 10, (rac)-9-[(N,S-dimethylsulfonodiimidoyl)methyl]-16,20-difluoro-2,3,4,5-tetrahydro-12H-13,17-(azeno)-11,7-(metheno)-1,6,12,14-benzodioxadiazacyclononadecine]
140 | 1.4 | 6.24 | 8.92 |  | CS(=N)(=N)Cc1cc2nc(c1)OCCCOc1cc(F)ccc1-c1cc(ncc1F)N2 [Example 1, 15,19-difluoro-8-[(S-methylsulfonodiimidoyl)methyl]-3,4-dihydro-2H,11H-10,6-(azeno)-12,16-(metheno)-1,5,11,13-benzodioxadiazacyclooctadecine]
1240 | 5 | 4.82 | 24.1 | 78 (≈ 170 µM) | CS(=N)(=N)Cc1cc2cc(c1)OCCCCOc1cc(F)ccc1-c1nc(ncc1F)N2 [Example 5, 16,20-difluoro-9-[(S-methylsulfonodiimidoyl)methyl]-2,3,4,5-tetrahydro-12H-13,17-(azeno)-11,7-(metheno)-1,6,12,14-benzodioxadiazacyclononadecine]
12500 | 4.8 | 4.64 | 22.3 | 14 (≈ 29.3 µM) | CS(=N)(=N)Cc1cc2cc(c1)OCCCCOc1c(ccc(F)c1F)-c1nc(ncc1F)N2 [Example 6, 16,20,21-trifluoro-9-[(S-methylsulfonodiimidoyl)methyl]-2,3,4,5-tetrahydro-12H-13,17-(azeno)-11,7-(metheno)-1,6,12,14-benzodioxadiazacyclononadecine]
